Laboratory results from patent US11078191B2, “1-(4-amino-5-bromo-6-(1H-pyrazol-1-yl)pyrimidin-2-yl)-1H-pyrazol-4-ol and use thereof in the treatment of cancer” (Novartis AG, priority 2017, dated 2021).
pKi: −log10 of the molar value. Like-named read-outs stand apart in the source and are kept apart here. Marks after values point to notes of the source that are not given here.

Key:
[1] = type: in vitro ADME; settings: for Percentage area ratio with respect to parent (10 uM): 0 min
Experimental: • ACN: acetonitrile • CC: calibration curve • IS: internal standard • DMSO: dimethylsulfoxide • MRM: multiple reaction monitoring • […]: nicotinamide adenine dinucleotide phosphate (reduced) • Rpm: revolution per minute Liver Microsomes • Rat liver microsomes (male, pooled, Sprague Dawley) • Source: XenoTech, LLC (Kansas, USA) • Protein content: 20 mg/mL • Catalogue number: R I 000, Lot number: 0710623 • Dog liver microsomes (male, pooled, Beagle) • Source: XenoTech, LLC (Kansas, USA) • Protein content: 20 mg|mL • Catalogue number: D I 000, Lot number: 0810143 • Human liver microsomes (mixed gender, pooled) • Source: XenoTech, LLC (Kansas, USA) • Protein content: 20 mg|mL • Catalogue number: H061 0, Lot number: 101042 Stock Solutions and Reagents Test Item
(§1) Reactions were performed in duplicates.
(§2) Reaction and control experiments were performed in singlet.
Samples were processed using protein precipitation method and then analyzed by employing linear gradient with a run time of 28 min in HPLC coupled with tandem mass spectrometry (API 4000 mass spectrometer). Each sample was injected and scanned separately for Q1 (MH+/MH−) and MS/MS.
The different possible metabolite peaks were identified in Q1 scan after assessing for matrix interference using test item free blank samples, and were confirmed from the fragmentation pattern (MSIMS scan).
An alternate analytical method was also developed to increase the retention times and to assess other metabolites apart from the identified M-1 metabolite. Aqueous solutions of 1-(6-amino-5-bromo-2-(1H-pyrazol-1-yl)pyrimidin-4-yl)-1H-pyrazol-4-ol and 1-(4-amino-5-bromo-6-(1H-pyrazol-1-yl)pyrimidin-2-yl)-1H-pyrazol-4-ol (1 uM) were co-chromatographed with the in vitro incubated samples employing modified analytical method to confirm the identity.

[2] = male, Sprague Dawley, rat, microsomes
Experimental: (§3) The final organic content in liver microsomal incubations was 0.5%.
Liver microsomal protein (25 uL for 0.5 mg/mL; 15 uL for 0.3 mg/mL), NADPH (100 uL, 2 mM final concentration) and phosphate buffer (870 uL for 0.5 mg/mL; 880 uL for 0.3 mg/mL) were incubated in a microfuge tube in an orbital shaker incubator for 10 min maintained at 37° C. Reactions were initiated by spiking 5 uL of 2 mM and 0.2 mM 5-bromo-2,6-di(1H-pyrazol-1-yl)pyrimindin-4-amine([…]; […]; 0.5% final DMSO concentration) and samples incubated at 37° C. Aliquots (200 uL) were withdrawn from the reaction tube at 0, 60 and 120 minutes and the reaction was quenched by addition of 100 uL acetonitrile. Reactions were performed in duplicates. The quenched samples were centrifuged at 14000 rpm (approximately 21000 g) for 10 minutes(Eppendorf Centrifuge 5810 R) and supernatant was analyzed by LCMS/MS.
(§4) Control incubations (no NADPH added) and blank incubations (no test item added) were performed in singlet for each species. These samples were withdrawn at 0 and 120 min and quenched using acetonitrile. The supernatant was analyzed for any non microsomal degradation and matrix interference. […] Reaction and control experiments were performed in singlet.

[3] = Experimental: as §3
Liver microsomal protein (25 uL for 0.5 mg/mL; 15 uL for 0.3 mg/mL), NADPH (100 uL, 2 mM final concentration) and phosphate buffer (870 uL for 0.5 mg/mL; 880 uL for 0.3 mg/mL) were incubated in a microfuge tube in an orbital shaker incubator for 10 min maintained at 37° C. Reactions were initiated by spiking 5 uL of 2 mM and 0.2 mM 5-bromo-2,6-di(1H-pyrazol-1-yl)pyrimindin-4-amine(10 uM final concentrations for 0.5 mg/mL protein; 1 uM final concentration for 0.3 mg/mL protein; 0.5% final DMSO concentration) and samples incubated at 37° C. Aliquots (200 uL) were withdrawn from the reaction tube at 0, 60 and 120 minutes and the reaction was quenched by addition of 100 uL acetonitrile. Reactions were performed in duplicates. The quenched samples were centrifuged at 14000 rpm (approximately 21000 g) for 10 minutes(Eppendorf Centrifuge 5810 R) and supernatant was analyzed by LCMS/MS.
as §4

[4] = Mass balance determination in human liver microsomes (MRM analysis); type: in vitro ADME
Experimental: as §1
An aliquot (25 uL) of these samples were further diluted with 100 uL of internal standard (Haloperidol, 1 ug|mL in acetonitrile).
The incubation samples were also prepared similar to that of the calibration standards by adding 25 uL of the quenched sample with 100 uL of internal standard.

[5] = Liver microsomal incubations compared across tested species; type: in vitro ADME, rat, dog, human
Experimental: as §1, §2

[6] = target: T1, human adenosine A2A receptor (Homo sapiens, UniProt P29274); test: In vitro hA2A radioligand binding assay; settings: [3H]-ZM241385 competition, HEK-293 membranes; Ki from IC50 by Cheng-Prusoff
T1 construct: purchased Perkin Elmer RBHA2AM400UA; host or cells: HEK-293 cells stably expressing the receptor (membrane preparation)
T1 sequence (P29274 whole entry): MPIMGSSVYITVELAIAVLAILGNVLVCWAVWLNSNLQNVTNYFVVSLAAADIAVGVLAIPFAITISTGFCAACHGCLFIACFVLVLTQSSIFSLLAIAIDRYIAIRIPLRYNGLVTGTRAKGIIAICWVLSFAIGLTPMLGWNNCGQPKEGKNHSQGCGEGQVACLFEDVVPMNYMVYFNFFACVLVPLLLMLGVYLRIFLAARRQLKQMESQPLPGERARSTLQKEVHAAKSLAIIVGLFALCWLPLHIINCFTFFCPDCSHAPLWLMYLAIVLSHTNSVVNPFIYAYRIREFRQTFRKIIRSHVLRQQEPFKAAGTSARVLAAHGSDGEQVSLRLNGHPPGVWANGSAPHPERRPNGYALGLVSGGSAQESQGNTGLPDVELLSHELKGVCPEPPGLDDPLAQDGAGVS

[7] = human liver microsomes, parent 10 uM, 0 min, Set-1
[8] = human liver microsomes, parent 10 uM, 30 min, Set-1
[9] = human liver microsomes, parent 10 uM, 60 min, Set-1
[10] = human liver microsomes, parent 10 uM, 0 min, Set-2
[11] = human liver microsomes, parent 10 uM, 30 min, Set-2
[12] = human liver microsomes, parent 10 uM, 60 min, Set-2

What does the source list for `Nc1nc(-n2cccn2)nc(-n2cccn2)c1Br` [Parent, 5-bromo-2,6-di(1H-pyrazol-1-yl)pyrimindin-4-amine]?
Percentage area ratio with respect to parent (10 uM) ([1]; both, human): 100%; Percentage area ratio with respect to parent (10 uM) ([1]; male, Beagle, dog): 100%; Percentage area ratio with respect to parent (10 uM) ([1]; male, Sprague Dawley, rat): 100%; % metabolism of parent at 120 min ([1]; male, Sprague Dawley, rat, 120 min, 10 uM): 0%; Concentration of Analyte metabolized ([1]; male, Sprague Dawley, rat, microsomes, 2 h, 10 uM): 0 nM; % remaining ([2]; 0 h, 1 uM): 100%; % metabolism of parent at 120 min ([3]; both, human, 1 uM): 76%; % remaining ([3]; both, human, microsomes, 0 h, 1 uM): 100%; % metabolism of parent at 120 min ([3]; human, 1 uM): 78%; % metabolism of parent at 120 min ([3]; male, Beagle, dog, 1 uM): 83%; % remaining ([3]; male, Beagle, dog, microsomes, 0 h, 1 uM): 100%; Concentration of Analyte metabolized ([3]; male, Beagle, dog, microsomes, 2 h, 1 uM): 830 nM; % parent Remaining [4, 7]: 100%; Parent Concentration [4, 7]: 11.78^a uM; % parent Remaining [4, 8]: 96.26%; Mass balance [4, 8]: 107.22%; Parent Concentration [4, 8]: 11.34^a uM; % parent Remaining [4, 9]: 88%; Mass balance [4, 9]: 107.81%; Parent Concentration [4, 9]: 10.47^a uM; Parent Concentration ([4]; human, 0 min, 10 uM): 11.54^a uM; Mass balance ([4]; human, 30 min, 10 uM): 95.41%; Parent Concentration ([4]; human, 30 min, 10 uM): 10.09^a uM; Mass balance ([4]; human, 60 min, 10 uM): 94.63%; Parent Concentration ([4]; human, 60 min, 10 uM): 9.18 µM; % parent Remaining ([4]; human, microsomes, 0 h, 10 uM): 100%; % parent Remaining ([4]; human, microsomes, 0.5 h, 10 uM): 87.44%; % parent Remaining ([4]; human, microsomes, 1 h, 10 uM): 79.55%; mass balance for the metabolism in human liver microsomes ([4]; text summary of Table 7): 95 to 107%; relative metabolism across tested species ([5]; 1 uM, 0.3 mg/mL microsomal protein, DLM, HLM, RLM = dog, human, rat liver microsomes): DLM>HLM>RLM; stability in control incubations (no NADPH added) ([5]; liver microsomes, indicating no non-CYP mediated metabolism): stable up to 120 min

Which results are given for `Nc1nc(-n2cc(O)cn2)nc(-n2cccn2)c1Br` [Example 1, 1-(4-amino-5-bromo-6-(1H-pyrazol-1-yl)pyrimidin-2-yl)-1H-pyrazol-4-ol]?
pKi [6]: 7.30; Percentage area ratio with respect to parent (10 uM) ([1]; male, Beagle, dog): 0.01%; percentage of M-I metabolite in human liver microsomes ([4]; after 60 minutes of incubation with parent, % of the parent): 15-20%; % M-I detected [4, 7]: 0%; M-I Concentration [4, 7]: 0 µM; % M-I detected [4, 10]: 0%; M-I Concentration [4, 10]: 0 µM; % M-I detected [4, 8]: 10.95%; M-I Concentration [4, 8]: 1.29 µM; % M-I detected [4, 11]: 7.97%; M-I Concentration [4, 11]: 0.92 µM; % M-I detected [4, 9]: 18.93%; M-I Concentration [4, 9]: 2.23 µM; % M-I detected [4, 12]: 15.08%; M-I Concentration [4, 12]: 1.74 µM; percentage of metabolite with respect to parent ([5]; rat, dog and human liver microsomes, assumes equal ionization efficiency): uniformly low

Which “% remaining” value ([2]; 0 h, 0.5 uM) does the source give for `O=C(O)Cc1ccccc1Nc1c(Cl)cccc1Cl` [Diclofenac] here?
The value was 100%.

And the “% remaining” value ([2]; 1 h, 0.5 uM)?
The value was 12%.

What about the “% remaining” value ([3]; both, human, microsomes, 0 h, 0.5 uM) of the same compound?
The value was 100%.

What about the “% remaining” value ([3]; both, human, microsomes, 1 h, 0.5 uM) of the same compound?
The value was 100%.
